# Laboratory results published in patent US20030233678A1, “Pre- and post-harvest inhibition of remobilisation of storage compounds” (Mogen International N.V., priority 1997, published 2003).
# Test system: potato tuber pieces containing at least one active meristem (wild-type and tps)
# Assay: Sprouting of cut tuber pieces incubated on gibberellic acid solutions
# Format: in vivo, Solanum tuberosum Var. Kardal
# Details: 1, 10 or 1000 ppm solution, 10 min incubation
# Description: Pat-TPS plants (Var. […]) derived from tissue culture plants were grown in the phytochamber under 500 μmol quanta m-2 s-1 (16 h light, 20° C.; 8 h dark (15° C.)). Tubers were harvested after three months and stored in the cold (4° C.) for 2 months. Three days after transfer to room temperature (RT), tuber pieces were cut with a knife containing at least one active meristem (eye). Cut pieces originating from 3-10 tubers per line were washed for 15 min in tap water. Approximately 6-10 pieces were subsequently incubated for 10 min on either water or on a 1, 10 or 1000 ppm solution of gibberellic acid (GA3, SIGMA, Zwijndrecht, Netherlands). All pieces from one treatment were transferred to containers onto wet paper tissue and covered with a plastic top to prevent drying out.
structure (smiles),measurement,setting,value
"C=C1C[C@]23C[C@@]1(O)CC[C@H]2[C@@]12C=C[C@H](O)[C@@](C)(C(=O)O1)[C@H]2[C@@H]3C(=O)O [GA3, gibberellic acid]",time until sprouting occurred,tps tuber pieces,≤ 4 days
same,time until sprouting occurred,wild-type tuber pieces,≤ 4 days
